Measurements as given in US9408393B2, “Bismuth-thiols as antiseptics for agricultural, industrial and other uses” (Microbion Corporation, priority 2010, dated 2016).
Where two headings read alike, the source gives them in different places.

Key:
Escherichia coli = test: Single-point BisEDT-antibiotic combination FICI; format: cell-based
Pseudomonas aeruginosa = test: Single-point BisEDT-antibiotic combination FICI; format: cell-based; details: PA 1380
Burkholderia cepacia = test: Single-point BisEDT-antibiotic combination FICI; format: cell-based; details: Bcep 1756
Bukholderia multivorans = test: Single-point BisEDT-antibiotic combination FICI; format: cell-based; details: Bmult 5665
Acinetobacter baumanii = test: Single-point BisEDT-antibiotic combination FICI; format: cell-based; details: Abau 2594
[1] = system: Staphylococcus aureus (SA, MRSA); test: Single-point BisEDT-antibiotic combination FICI; format: cell-based
Enterococcus faecalis = test: Single-point BisEDT-antibiotic combination FICI; format: cell-based; details: E Fc 3121
Klebsiella pneumoniae = test: Single-point BisEDT-antibiotic combination FICI; format: cell-based; details: KP 1231
[2] = system: Streptococcus pneumoniae (SP, PRSP); test: Single-point BisEDT-antibiotic combination FICI; details: PRSP 5348
P. aeruginosa = test: Checkerboard broth microdilution MIC and FICI; format: cell-based, Pseudomonas aeruginosa; details: Pseudomonas aeruginosa, compound alone, read-out: MIC (μg/mL) Alone
Protocol: (§1) The effects of combinations of microparticulate Bis-EDT and four Bis-EDT analogs prepared as described above, and other agents against representative strains of several Gram-negative pathogenic bacteria were tested. A modification of a common laboratory method was used to determine synergism (FICI≦0.5), enhancement (0.5<FICI≦1.0), antagonism (FICI>4.0) and indifference (1.0<FICI≦4.0) used fractional inhibitory concentrations (FICs) and FIC indices (FICI) (Eliopoulos G and R Moellering. 1991. Antimicrobial combinations. In Antibiotics in Laboratory Medicine, Third Edition, edited by V Lorian. Williams and Wilkins, Baltimore, Md., pp. 432-492; Odds, 2003 J. Antimicrob. Chemother. 52(1):1). The checkerboard technique was used to determine FIC indices and was employed in this study.
(§2) Stock solutions of all test articles were prepared at 40× the final target concentration in the appropriate solvent. […] The final drug concentrations in the FIC assay plates were set to bracket the MIC value of each agent for each test organism, unless the strain was totally resistant to the test agent. […] The test organisms were originally received from clinical sources, or from the American Type Culture Collection. Upon receipt, the isolates were streaked onto Tryptic Soy Agar II (TSA). Colonies were harvested from these plates and a cell suspension was prepared in an appropriate broth growth medium containing cryoprotectant. Aliquots were then frozen at −80° C. The frozen seeds of the organisms to be tested in a given assay were thawed, streaked for isolation onto TSA plates, and incubated at 35° C. All organisms were tested in Mueller Hinton II Broth (Becton Dickinson, Lot No. 9044411). The broth was prepared at 1.05× normal weight/volume to offset the 5% volume of the drugs in the final test plates.
(§3) Minimal Inhibitory Concentration (MIC) values were previously determined using the broth microdilution method for aerobic bacteria (Clinical and Laboratory Standards Institute (CLSI). Methods for Dilution Antimicrobial Susceptibility Tests for Bacteria That Grow Aerobically; Approved Standard—Eighth Edition. CLSI document M07-A8 [ISBN 1-56238-689-1]. Clinical and Laboratory Standards Institute, 940 West Valley Road, Suite 1400, Wayne, Pa. 19087-1898 USA, 2009.).
(§4) FIC values were determined using a broth microdilution method previously described (Sweeney et al., 2003 Antimicrob. Agents Chemother. 47(6):1902-1906). To prepare the test plates, automated liquid handlers (Multidrop 384, Labsystems, Helsinki, Finland; Biomek 2000 and Multimek 96, Beckman Coulter, Fullerton Calif.) were used to conduct serial dilutions and liquid transfers.
(§5) The appropriate wells of standard 96-well microdilution plates (Falcon 3918) were filled with 150 μL of the appropriate solvent in columns 2-12 using the Multidrop 384. Three hundred microliters of each secondary test drug was added to each well in Column 1 of the plates. These plates were used to prepare the drug “mother plates” which provided the serial drug dilutions for the drug combination plates. The Biomek 2000 was used to transfer 150 μL of each secondary drug solution (40×) from the wells in Column 1 of the mother plate and to make eleven 2-fold serial dilutions. Mother plates of Bis-EDT (and analogs) were serial diluted top to bottom by hand, using a multichannel pipette. Two mother plates, one for each secondary drug and one for Bis-EDT (or analogs), were combined to form a “checkerboard” pattern by transfer of equal volumes (using a multi-channel pipette) to the drug combination plate. Row H and Column 12 each contained serial dilutions of one of the agents alone for determination of the MIC.
(§6) The “daughter plates” were loaded with 180 μL of test medium using the Multidrop 384. Then, the Multimek 96 was used to transfer 10 μL of drug solution from each well of the drug combination mother plate to each corresponding well of the daughter plate in a single step.

[3] = system: Gram-negative pathogenic bacteria; test: Checkerboard broth microdilution MIC and FICI; format: cell-based; details: compound alone; for MIC: Klebsiella pneumoniae, read-out: MIC (μg/mL) Alone
Protocol: as §1, §2, §3, §4, §5, §6

| SMILES | FICI, single-point BisEDT-antibiotic combination (Escherichia coli; EC 102) | FICI, single-point BisEDT-antibiotic combination (Pseudomonas aeruginosa) | FICI, single-point BisEDT-antibiotic combination (Burkholderia cepacia) | FICI, single-point BisEDT-antibiotic combination (Bukholderia multivorans) | FICI, single-point BisEDT-antibiotic combination (Acinetobacter baumanii) | FICI, single-point BisEDT-antibiotic combination ([1]; MRSA 773) | FICI, single-point BisEDT-antibiotic combination ([1]; SA 100) | FICI, single-point BisEDT-antibiotic combination (Enterococcus faecalis) | FICI, single-point BisEDT-antibiotic combination (Escherichia coli; EC 2232) | FICI, single-point BisEDT-antibiotic combination (Klebsiella pneumoniae) | FICI, single-point BisEDT-antibiotic combination [2] | further results |
| --- | --- | --- | --- | --- | --- | --- | --- | --- | --- | --- | --- | --- |
| O=C(O)c1cn(C2CC2)c2cc(N3CCNCC3)c(F)cc2c1=O [Ciprofloxacin] | 1.14 | 2.75 | 2.23 | 2.29 | 1.04 |  |  |  |  |  |  |  |
| CN(C)[C@@H]1C(O)=C(C(N)=O)C(=O)[C@@]2(O)C(O)=C3C(=O)c4c(O)cccc4[C@@](C)(O)[C@H]3C[C@@H]12 [Tetracycline] | 0.62 | 1.29 | 1.96 | 1.12 | 1.12 | 1.23 | 0.89 | 0.92 | 0.79 | 1.29 | 0.34 |  |
| C[C@@H]1O[C@@H]1P(=O)(O)O [Phosphomycin] |  | 1.86 | 1.29 | 1.23 | 1.12 | 0.61 |  | 1.23 | 1.96 | 1.02 | 1.45 |  |
| C[C@H]1[C@H](NC(=O)/C(=N\OC(C)(C)C(=O)O)c2csc(N)n2)C(=O)N1S(=O)(=O)O [Aztreonam] | 0.74 | 0.55 | 0.67 | 0.96 | 0.87 |  |  |  | 1.29 | 0.73 |  | MIC (P. aeruginosa; P. aeruginosa 103): 8 µg/mL; MIC (P. aeruginosa; P. aeruginosa 1381): 64 µg/mL; MIC (P. aeruginosa; P. aeruginosa 1384): 8 µg/mL; MIC (P. aeruginosa; P. aeruginosa 1474): 8 µg/mL; MIC (P. aeruginosa; P. aeruginosa 1479): 8 µg/mL; MIC (P. aeruginosa; P. aeruginosa 2566): 16 µg/mL; MIC (P. aeruginosa; P. aeruginosa 2568): 8 µg/mL |
| CCN1CCN(C(=O)N[C@@H](C(=O)N[C@@H]2C(=O)N3[C@@H]2SC(C)(C)[C@@H]3C(=O)O)c2ccccc2)C(=O)C1=O [Piperacillin] | 0.87 | 0.67 | 1.12 | 1.12 | 1.12 | 1.28 | 0.57 | 1.11 | 1.29 | 2.23 | 1.11 |  |
| CO/N=C(\C(=O)N[C@@H]1C(=O)N2C(C(=O)O)=C(COC(C)=O)CS[C@H]12)c1csc(N)n1 [Cefotaxime] | 1.37 | 0.64 | 1.29 | 1.11 | 1.29 | 2.23 | 1.11 | 0.73 | 1.29 | 0.61 | 1.11 | MIC (P. aeruginosa; P. aeruginosa 103): 16 µg/mL; MIC (μg/mL) Alone ([3]; K. pneumoniae 1355): 0.12 µg/mL; MIC (μg/mL) Alone ([3]; K. pneumoniae 2238): 8 µg/mL; MIC (μg/mL) Alone ([3]; K. pneumoniae 2549): 0.06 µg/mL; MIC ([3]; K. pneumoniae 1346): 0.06 µg/mL; MIC ([3]; K. pneumoniae 1355): 0.06 µg/mL; MIC ([3]; K. pneumoniae 2238): 16 µg/mL; MIC ([3]; K. pneumoniae 2546): 0.25 µg/mL; MIC ([3]; K. pneumoniae 2549): 0.12 µg/mL |
| C[C@H]1COc2c(N3CCN(C)CC3)c(F)cc3c(=O)c(C(=O)O)cn1c23 [Levofloxacin] |  |  |  |  |  | 1.11 | 1.23 | 1.08 |  |  | 0.70 |  |
| CO/N=C(\C(=O)N[C@@H]1C(=O)N2C(C(=O)O)=C(COC(N)=O)CS[C@H]12)c1ccco1 [Cefuroxime] |  |  |  |  |  | 4.23 | 1.11 | 1.11 |  |  | 1.03 |  |
